# Data taken from patent US5389627A, “Cephem compounds” (priority 1993, dated 1995).
# Key:
# [1] = Pharmacokinetics (plasma half-life); assay type: in vivo; conditions: SD Rat, mean value, read-out: Half-Life (T1/2)
# Procedure: In order to investigate the pharmacokinetics properties of the compounds according to the present invention, the plasma half-life was determined in accordance with the method described in Antimicrobial Agents and Chemotherapy, 26(2), p.
# S.marcescens ATCC27117 = assay: In vitro antibacterial activity, minimum inhibitory concentration; assay type: cell-based; conditions: Serratia marcescens; S.marcescens ATCC27117; read-out: Minimum Inhibitory Concentration (MIC)
# Text: (§1) As reference compounds, Cefotaxime (CTX), Ceftazidime (CAZ) and Cefpirome (CPR) were employed.
# P.aeruginosa C2027 = assay: as above; assay type: cell-based; conditions: Pseudomonas aeruginosa; P.aeruginosa C2027; read-out: Minimum Inhibitory Concentration (MIC)
# Text: as §1
# S.marcescens C1052 = assay: as above; assay type: cell-based; conditions: Serratia marcescens; S.marcescens C1052; read-out: Minimum Inhibitory Concentration (MIC)
# Text: as §1
# S.Faecalis ATCC29212 = assay: as above; assay type: cell-based; conditions: Enterococcus faecalis
# Text: as §1
# S.typhimurium C4045 = assay: as above; assay type: cell-based; conditions: Salmonella enterica; S.typhimurium C4045; read-out: Minimum Inhibitory Concentration (MIC)
# Text: as §1
# K.pneumoniae C1040 = assay: as above; assay type: cell-based; conditions: Klebsiella pneumoniae; K.pneumoniae C1040; read-out: Minimum Inhibitory Concentration (MIC)
# Text: as §1
# S.pyogenes C4003 = assay: as above; assay type: cell-based; conditions: Streptococcus pyogenes; S.pyogenes C4003; read-out: Minimum Inhibitory Concentration (MIC)
# Text: as §1
# P.mirabilis ATCC25933 = assay: as above; assay type: cell-based; conditions: Proteus mirabilis; P.mirabilis ATCC25933; read-out: Minimum Inhibitory Concentration (MIC)
# Text: as §1
# K.oxytoca C4022 = assay: as above; assay type: cell-based; conditions: Klebsiella oxytoca; K.oxytoca C4022; read-out: Minimum Inhibitory Concentration (MIC)
# Text: as §1
# S.aureus Smith = assay: as above; assay type: cell-based; conditions: Staphylococcus aureus; S.aureus Smith; read-out: Minimum Inhibitory Concentration (MIC)
# Text: as §1
# P.aeruginosa C4070 = assay: as above; assay type: cell-based; conditions: Pseudomonas aeruginosa; P.aeruginosa C4070; read-out: Minimum Inhibitory Concentration (MIC)
# Text: as §1
# P.aeruginosa ATCC10145 = assay: as above; assay type: cell-based; conditions: Pseudomonas aeruginosa; P.aeruginosa ATCC10145; read-out: Minimum Inhibitory Concentration (MIC)
# Text: as §1
# P.rettgeri ATCC9919 = assay: as above; assay type: cell-based; conditions: Providencia rettgeri; P.rettgeri ATCC9919; read-out: Minimum Inhibitory Concentration (MIC)
# Text: as §1
# E.cloacae C4009 = assay: as above; assay type: cell-based; conditions: Enterobacter cloacae; E.cloacae C4009; read-out: Minimum Inhibitory Concentration (MIC)
# Text: as §1
# K.pneumoniae ATCC10031 = assay: as above; assay type: cell-based; conditions: Klebsiella pneumoniae; K.pneumoniae ATCC10031; read-out: Minimum Inhibitory Concentration (MIC)
# Text: as §1
# E.coli ATCC10536 = assay: as above; assay type: cell-based; conditions: Escherichia coli; E.coli ATCC10536; read-out: Minimum Inhibitory Concentration (MIC)
# Text: as §1
# P.aeruginosa ATCC27853 = assay: as above; assay type: cell-based; conditions: Pseudomonas aeruginosa; P.aeruginosa ATCC27853; read-out: Minimum Inhibitory Concentration (MIC)
# Text: as §1
# E.cloacae C4008 = assay: as above; assay type: cell-based; conditions: Enterobacter cloacae; E.cloacae C4008; read-out: Minimum Inhibitory Concentration (MIC)
# Text: as §1
# S.pyogenes ATCC 8668 = assay: as above; assay type: cell-based; conditions: Streptococcus pyogenes, ATCC8668; S.pyogenes ATCC 8668; read-out: Minimum Inhibitory Concentration (MIC)
# Text: as §1
# MRSA C2208 = assay: as above; assay type: cell-based; conditions: Staphylococcus aureus; MRSA C2208; read-out: Minimum Inhibitory Concentration (MIC)
# Text: as §1
# E.coli ATCC25922 = assay: as above; assay type: cell-based; conditions: Escherichia coli; E.coli ATCC25922; read-out: Minimum Inhibitory Concentration (MIC)
# Text: as §1
# S.aureus C4036 = assay: as above; assay type: cell-based; conditions: Staphylococcus aureus; S.aureus C4036; read-out: Minimum Inhibitory Concentration (MIC)
# Text: as §1
# S.epidermidis ATCC12228 = assay: as above; assay type: cell-based; conditions: Staphylococcus epidermidis; S.epidermidis ATCC12228; read-out: Minimum Inhibitory Concentration (MIC)
# Text: as §1
# S.aureus ATCC29213 = assay: as above; assay type: cell-based; conditions: Staphylococcus aureus; S.aureus ATCC29213; read-out: Minimum Inhibitory Concentration (MIC)
# Text: as §1
# E.coli C4002 = assay: as above; assay type: cell-based; conditions: Escherichia coli; E.coli C4002; read-out: Minimum Inhibitory Concentration (MIC)
# Text: as §1
half-life [1],MIC (S.marcescens ATCC27117),MIC (P.aeruginosa C2027),MIC (S.marcescens C1052),MIC (S.Faecalis ATCC29212),MIC (S.typhimurium C4045),MIC (K.pneumoniae C1040),MIC (S.pyogenes C4003),MIC (P.mirabilis ATCC25933),MIC (K.oxytoca C4022),MIC (S.aureus Smith),MIC (P.aeruginosa C4070),MIC (P.aeruginosa ATCC10145),MIC (P.rettgeri ATCC9919),MIC (E.cloacae C4009),MIC (K.pneumoniae ATCC10031),MIC (E.coli ATCC10536),MIC (P.aeruginosa ATCC27853),MIC (E.cloacae C4008),MIC (S.pyogenes ATCC 8668),Compound,also measured
24 min,0.007 µg/mL,0.78 µg/mL,0.025 µg/mL,> 100 µg/mL,0.007 µg/mL,0.004 µg/mL,0.013 µg/mL,0.025 µg/mL,0.78 µg/mL,1.56 µg/mL,1.56 µg/mL,1.56 µg/mL,0.007 µg/mL,0.007 µg/mL,0.004 µg/mL,0.004 µg/mL,0.78 µg/mL,0.002 µg/mL,0.013 µg/mL,"CO/N=C(\C(=O)N[C@@H]1C(=O)N2C(C(=O)[O-])=C(C[n+]3ccc4[nH]c(=O)[nH]c4c3)CS[C@H]12)c1nsc(N)n1 [Ex. 5, 7-β-[(Z)-2-(5-Amino-1,2,4-thiadiazol-3-yl)-2-methoxyiminoacetamido]-3-[2-(1H,3H)-oxo-imidazo[4,5-c]pyridiniummethyl]-3-cephem-4-carboxylate]",MIC (MRSA C2208): > 100 µg/mL; MIC (E.coli ATCC25922): 0.013 µg/mL; MIC (S.aureus C4036): 1.56 µg/mL; MIC (S.epidermidis ATCC12228): 0.78 µg/mL; MIC (S.aureus ATCC29213): 1.56 µg/mL; MIC (E.coli C4002): 0.007 µg/mL
19.5 min,0.05 µg/mL,0.39 µg/mL,0.05 µg/mL,50 µg/mL,0.025 µg/mL,0.025 µg/mL,0.007 µg/mL,0.05 µg/mL,1.56 µg/mL,0.39 µg/mL,6.25 µg/mL,6.25 µg/mL,0.013 µg/mL,0.013 µg/mL,0.013 µg/mL,0.013 µg/mL,3.13 µg/mL,0.013 µg/mL,0.007 µg/mL,"CO/N=C(\C(=O)N[C@@H]1C(=O)N2C(C(=O)[O-])=C(C[n+]3cccc4c3CCC4)CS[C@H]12)c1csc(N)n1 [CPR, Cefpirome, reference compound]",MIC (MRSA C2208): > 100 µg/mL; MIC (E.coli ATCC25922): 0.05 µg/mL; MIC (S.aureus C4036): 0.39 µg/mL; MIC (S.epidermidis ATCC12228): 0.2 µg/mL; MIC (S.aureus ATCC29213): 0.78 µg/mL; MIC (E.coli C4002): 0.05 µg/mL
